“And” between values parts separate entries of the source, which are not always exact repeats. Identical values can stand only once.
What was measured:
Brd2(1) = target: T1, Brd2(1) (Homo sapiens, UniProt P25440); assay: ITC reverse titration of protein into compound; assay type: binding; conditions: for ΔH Brd2(1): ITC 25° C.
T1 construct: Plasmids of the eight single BET bromodomain constructs Brd2(1), Brd2(2), Brd3(1), Brd3(2); His6 (N); made in house; host or cells: E. coli BL21(DE3)
Description: (§1) ITC experiments were carried out on a ITC200 instrument from MicroCal™ Experiments were conducted at 3 different temperatures 15° C., 25° C. and 30° C., while stirring at 1000 rpm. Buffers of proteins, peptide and compounds were matched to 20 mM HEPES pH 7.5 at 25° C. and 100 mM NaCl. Frozen protein was buffer exchanged as described for the DSF experiments. Each titration comprised 1 initial injection of 0.4 μl lasting 0.8 s, followed by 19 injections of 2 μl lasting 4 s each at 2 min intervals. The initial injection was discarded during data analysis. Standard and reverse titrations were conducted depending on the binding partners.
(§2) Reverse titrations were conducted to test the binding of the known ligands and the novel chemical probes to the wild types and the mutants. Experiments were carried out either at 25° C. or 30° C. […] In cases where the compound was solubilized in dimethyl sulfoxide, DMSO concentration was adjusted to 1% both in the syringe and in the cell.
(§3) All the data was fitted to a single binding site model using the Microcal LLC ITC200 Origin software provided by the manufacturer to yield enthalpies of binding (ΔH) and binding constants (Kas). Further thermodynamic parameters were calculated from these values (changes in entropy ΔS, changes in free energy AG and dissociation constants (Kds)).

Brd2(2) = target: T2, Brd2(2) (Homo sapiens, UniProt P25440); assay: ITC reverse titration of protein into compound; assay type: binding; conditions: ITC 25° C.; for Kd: Kd Brd2(2)
T2 construct: Plasmids of the eight single BET bromodomain constructs Brd2(1), Brd2(2), Brd3(1), Brd3(2); His6 (N); made in house; host or cells: E. coli BL21(DE3)
T2 sequence (P25440 344-453 limits assumed): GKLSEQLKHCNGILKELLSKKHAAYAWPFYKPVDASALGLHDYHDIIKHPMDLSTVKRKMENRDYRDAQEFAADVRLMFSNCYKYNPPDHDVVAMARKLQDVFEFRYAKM
Description: as §1, §2, §3

Brd2(1)*(Leu110-Ala) = Brd2(1)*(Leu110-Ala) (Homo sapiens, UniProt P25440, L110A); assay: DSF thermal shift; assay type: binding; set-up: Plasmids of the eight single BET bromodomain constructs Brd2(1), Brd2(2), Brd3(1), Brd3(2); His6 (N); made in house; host or cells: E. coli BL21(DE3); conditions: mutant
Brd2(1)*(Leu110-Ala), sequence (P25440 74-180 L110A limits assumed): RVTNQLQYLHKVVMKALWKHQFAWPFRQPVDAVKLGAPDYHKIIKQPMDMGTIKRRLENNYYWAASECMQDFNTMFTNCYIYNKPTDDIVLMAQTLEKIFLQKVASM

Brd2(2)*(Leu383-Ala) = Brd2(2)*(Leu383-Ala) (Homo sapiens, UniProt P25440, L383A); assay: DSF thermal shift; assay type: binding; set-up: Plasmids of the eight single BET bromodomain constructs Brd2(1), Brd2(2), Brd3(1), Brd3(2); His6 (N); made in house; host or cells: E. coli BL21(DE3); conditions: mutant
Brd2(2)*(Leu383-Ala), sequence (P25440 344-453 L383A limits assumed): as the sequence (P25440 344-453 limits assumed) above, with L40A counted along it

Brd4(1) = target: T3, Brd4(1) (Homo sapiens, UniProt O60885); assay: DSF thermal shift; assay type: binding; conditions: wild type
T3 construct: Plasmids of the eight single BET bromodomain constructs Brd2(1), Brd2(2), Brd3(1), Brd3(2), Brd4(1), Brd4(2), Brdt(1) and Brdt(2); His6 (N); made in house; host or cells: E. coli BL21(DE3)

Brd4(2) = target: T4, Brd4(2) (Homo sapiens, UniProt O60885); assay: DSF thermal shift; assay type: binding; conditions: wild type
T4 construct: Plasmids of the eight single BET bromodomain constructs Brd2(1), Brd2(2), Brd3(1), Brd3(2), Brd4(1), Brd4(2), Brdt(1) and Brdt(2); His6 (N); made in house; host or cells: E. coli BL21(DE3)

brd4(1)L094A = target: T5, brd4(1)L094A (Homo sapiens, UniProt O60885, L94A); assay: DSF thermal shift; assay type: binding; conditions: mutant
T5 construct: Plasmids of the eight single BET bromodomain constructs Brd2(1), Brd2(2), Brd3(1), Brd3(2), Brd4(1), Brd4(2), Brdt(1) and Brdt(2); His6 (N); made in house; host or cells: E. coli BL21(DE3)

brd4(2)L387A = target: T6, brd4(2)L387A (Homo sapiens, UniProt O60885, L387A); assay: DSF thermal shift; assay type: binding; conditions: mutant
T6 construct: Plasmids of the eight single BET bromodomain constructs Brd2(1), Brd2(2), Brd3(1), Brd3(2), Brd4(1), Brd4(2), Brdt(1) and Brdt(2); His6 (N); made in house; host or cells: E. coli BL21(DE3)

WT GFP-Brd4 = target: T7, WT GFP-Brd4 (Homo sapiens, UniProt O60885); assay: FRAP in transfected U2OS cells; assay type: cell-based; conditions: WT GFP-Brd4, 1 μM compound
T7 construct: full length human GFP-BRD4 transfected into human osteosarcoma cells (U2OS); expressed in transfected cells; host or cells: U2OS human osteosarcoma cells
Description: The data shown represent the mean±SEM (n=35-50). Statistical significance was determined by one-tailed t tests: *<0.05; **P<0.01; ***P<0.001; n.s. not significant.
Fluorescence recovery after photobleaching (FRAP) experiments were performed in human osteosarcoma U2OS cells transfected with mammalian expression constructs encoding wild type and mutant GFP chimeras of Brd4. Cells were cultured in DMEM (Gibco) supplemented with fetal bovine serum, Penicillin/Streptamycin and L-Glutamine. Cells were seeded into glass bottom dishes (Willco) to about 40% confluency and transfected with the constructs using Effectene (QIAGEN) at least 18 h before the experiment. Treatment of cells with 1 μM compounds (in DMSO) was performed 12-15 h before the experiment. Cells without compound treatment were treated with DMSO as a vehicle control at least 15 h before the experiment. DMEM was exchanged for CO2-independent phenol red-free media (Gibco) for the experiment. […] A spot was bleached with a single pulse at 100% laser power for 0.2 s and recovery images were acquired using a coolsnap HQ camera with a 2×2 bin at 0.05 s exposure. […] FRAP data was analysed using the SoftWorX software. It was fitted to a 2-dimensional recovery curve using the method of Axelrod as implemented within the software and half-times of recovery were calculated.

T1 sequence (P25440 74-180 limits assumed): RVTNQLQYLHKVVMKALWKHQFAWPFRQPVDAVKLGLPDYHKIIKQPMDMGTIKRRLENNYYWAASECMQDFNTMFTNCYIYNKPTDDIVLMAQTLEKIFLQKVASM

Compound | Kd (Brd2(1)) [nM] | ΔH Brd2(1) (Brd2(1)) [kcal/mol] | ΔH Brd2(2) (Brd2(2)) [kcal/mol] | Kd (Brd2(2)) | Thermal stabilisation brd2(1)L110A (Brd2(1)*(Leu110-Ala)) [°C] | ΔTm Brd2(1)*(Leu110-Ala) (Brd2(1)*(Leu110-Ala)) [K] | Thermal stabilisation brd2(1)L110A (Brd2(1)*(Leu110-Ala); listed as compound 7) [°C] | Thermal stabilisation brd2(2)L383A (Brd2(2)*(Leu383-Ala)) [°C] | ΔTm Brd2(2)*(Leu383-Ala) (Brd2(2)*(Leu383-Ala)) [K] | Thermal stabilisation brd2(2)L383A (Brd2(2)*(Leu383-Ala); listed as compound 7) [°C] | ΔTm Brd4(1) (Brd4(1)) [K] | ΔTm Brd4(2) (Brd4(2)) [K] | ΔTm Brd4(1)* (L094A) (brd4(1)L094A) [K] | ΔTm Brd4(2)* (L387A) (brd4(2)L387A) [K] | Fluorescence recovery after photobleaching (recovery time) (WT GFP-Brd4)
COC(=O)[C@H](C)[C@@H]1N=C(c2ccc(Cl)cc2)c2cc(OC)ccc2-n2c(C)nnc21 (racemic) [Compound 7, (+−)-methyl (R)-2-((S)-6-(4-chlorophenyl)-8-methoxy-1-methyl-4H-benzo[f][1,2,4]triazolo[4,3-a][1,4]diazepin-4-yl)propanoate] | 1470 | -8.653 ± 0.1357 | -5.36 ± 0.117 | 300 nM and 298 nM | 7.9 ± 0.2 | 7.9 ± 0.2 | 7.9 | 9.3 ± 0.2 | 9.3 ± 0.2 | 9.3 | – | – | – | – | –
CC[C@@H](C(=O)OC)[C@@H]1N=C(c2ccc(Cl)cc2)c2cc(OC)ccc2-n2c(C)nnc21 (racemic) [Compound 11, (+−)-methyl (R)-2-((S)-6-(4-chlorophenyl)-8-methoxy-1-methyl-4H-benzo[f][1,2,4]triazolo[4,3-a][1,4]diazepin-4-yl)butanoate] | 1780 ± 2000 | -2.957 ± 0.2144 | -3.601 ± 0.0852 | 2200 ± 400 nM | – | 7.6 ± 0.2 | – | – | 8.1 ± 0.2 | – | 1.5 ± 0.4 | 1.5 ± 0.0 | 10.0 ± 0.2 | 7.0 ± 0.1 | no reduction of recovery times relative to vehicle-treated cells

Source: patent US20170122958A1, “Enzymes Functional Probes” (University of Dundee, priority 2013, published 2017)
